Results from ChEMBL document CHEMBL5614417, “Discovery of AMPs from random peptides via deep learning-based model and biological activity validation” (Eur J Med Chem, 2024).
Converted amounts (≈) assume the structure as drawn. The source made the active and inactive calls. No cut-off for these calls is given here. Where a SMILES comes first, the peptide text is derived from it.

Columns and labels:
Staphylococcus aureus [1] = test: Inhibition of biofilm formation in Staphylococcus aureus at MIC incubated for 24 hrs by crystal violet staining based assay; format: functional
Escherichia coli [2] = test: Bactericidal activity against Escherichia coli at 4 times MIC measured after 2 hrs by time kill kinetic assay; format: functional
Erythrocyte [3] = test: Hemolytic activity in rat erythrocytes incubated for 1 hr; format: toxicity, cell-based
Staphylococcus aureus [4] = test: Antibacterial activity against Staphylococcus aureus ATCC 25923 incubated for 18 hrs in presence of 150 mM NaCl by visual inspection method; format: functional
Cell membrane [5] = test: Induction of inner membrane permeability in Escherichia coli ML-35 at 1 to 4 times MIC by ONPG dye based assay; format: cell membranes; conditions: TDE = time-dependent effect
Cell membrane [6] = test: Induction of cell membrane damage in Escherichia coli assessed as change in morphology by measuring numerous blebs covered membrane at 4 times MIC incubated for 5 hrs by SEM analysis; format: cell membranes
Acinetobacter baumannii [7] = test: Antibacterial activity against multidrug resistant Acinetobacter baumannii 4 incubated for 18 hrs by visual inspection method; format: functional
Escherichia coli [8] = test: Bactericidal activity against Escherichia coli at 2 times MIC measured after 3 hrs by time kill kinetic assay; format: functional, organism-based
Escherichia coli [9] = test: Antibacterial activity against ESBL Escherichia coli 1 incubated for 18 hrs by visual inspection method; format: functional
Staphylococcus aureus [10] = test: Induction of resistance development against Staphylococcus aureus assessed as fold increase in MIC after 21 passages; format: functional
Acinetobacter baumannii [11] = test: Antibacterial activity against Acinetobacter baumannii ATCC 19606 incubated for 18 hrs by visual inspection method; format: functional
Staphylococcus aureus [12] = test: Antibacterial activity against Staphylococcus aureus ATCC 25923 incubated for 18 hrs in presence of 100 mM NaCl by visual inspection method; format: functional
Escherichia coli [13] = test: Antibacterial activity against ESBL Escherichia coli 3 incubated for 18 hrs by visual inspection method; format: functional
Escherichia coli [14] = test: Antibacterial activity against Escherichia coli ATCC 25922 incubated for 18 hrs by visual inspection method; format: functional
Staphylococcus aureus [15] = test: Antibacterial activity against Staphylococcus aureus ATCC 25923 incubated for 18 hrs by visual inspection method; format: functional
Cell membrane [16] = test: Induction of cell membrane damage in Staphylococcus aureus assessed as change in morphology by measuring deformed membrane at 4 times MIC incubated for 5 hrs by SEM analysis; format: cell membranes
Staphylococcus aureus [17] = test: Antibacterial activity against methicillin resistant Staphylococcus aureus 4 incubated for 18 hrs by visual inspection method; format: functional
Cell membrane [18] = test: Induction of cell membrane damage in Staphylococcus aureus at 4 times MIC incubated for 30 mins by PI staining based confocal laser scanning microscopic analysis; format: cell membranes
Staphylococcus aureus [19] = test: Antibacterial activity against Staphylococcus aureus ATCC 25923 incubated for 18 hrs in presence of 50 mM NaCl by visual inspection method; format: functional
Cell membrane [20] = test: Induction of cell membrane damage in Escherichia coli at 4 times MIC incubated for 30 mins by PI staining based confocal laser scanning microscopic analysis; format: cell membranes
Staphylococcus aureus [21] = test: Antibacterial activity against methicillin resistant Staphylococcus aureus 3 incubated for 18 hrs by visual inspection method; format: functional
[22] = Toxicity in BALB/c mouse assessed as kidney damage at 400 mg/kg, ip measured after 48 hrs by H and E staining based assay; format: organism-based; conditions: in vivo
Staphylococcus aureus [23] = test: Antibacterial activity against methicillin resistant Staphylococcus aureus 2 incubated for 18 hrs by visual inspection method; format: functional
Escherichia coli [24] = test: Antibacterial activity against Escherichia coli ATCC 25922 incubated for 18 hrs in presence of 150 mM NaCl by visual inspection method; format: functional
[25] = Toxicity in BALB/c mouse assessed as edema in hepatocytes at 200 to 400 mg/kg, ip measured after 48 hrs by H and E staining based assay; format: organism-based; conditions: in vivo, dose 200-400 mg/kg
Bacillus subtilis = test: Antibacterial activity against Bacillus subtilis ATCC 23857 incubated for 18 hrs by visual inspection method; format: functional
[26] = Toxicity in BALB/c mouse assessed as lung damage at 400 mg/kg, ip measured after 48 hrs by H and E staining based assay; format: organism-based; conditions: in vivo
Cell membrane [27] = test: Induction of cell membrane damage in Staphylococcus aureus assessed as change in morphology by measuring numerous blebs covered membrane at 4 times MIC incubated for 5 hrs by SEM analysis; format: cell membranes
[28] = Toxicity in BALB/c mouse assessed as heart damage at 400 mg/kg, ip measured after 48 hrs by H and E staining based assay; format: organism-based; conditions: in vivo
Erythrocyte [29] = test: Hemolytic activity in rat erythrocytes at 250 ug/ml incubated for 1 hr; format: toxicity, cell-based; conditions: dose 250 µg/ml
Acinetobacter baumannii [30] = test: Antibacterial activity against multidrug resistant Acinetobacter baumannii 3 incubated for 18 hrs by visual inspection method; format: functional
[31] = Hemolytic activity in rat erythrocytes at 1000 ug/ml incubated for 1 hr; format: toxicity, cell-based, Erythrocyte; conditions: at 1000 µg/mL, read-out: Activity
[32] = system: Staphylococcus epidermidis; test: Antibacterial activity against Staphylococcus epidermidis ATCC 12228 incubated for 18 hrs by visual inspection method; format: functional
Klebsiella pneumoniae = test: Antibacterial activity against Klebsiella pneumoniae ATCC 700603 incubated for 18 hrs by visual inspection method; format: functional
Cell membrane [33] = test: Induction of cell membrane damage in Staphylococcus aureus assessed as change in morphology by measuring roughened membrane at 4 times MIC incubated for 5 hrs by SEM analysis; format: cell membranes
Cell membrane [34] = test: Induction of cell membrane damage in Escherichia coli assessed as change in morphology by measuring deformed membrane at 4 times MIC incubated for 5 hrs by SEM analysis; format: cell membranes
Staphylococcus aureus [35] = test: Antibacterial activity against Staphylococcus aureus infected in BALB/c mouse at 10 to 20 mg/kg administered every 4 hrs for 3 doses and measured after 4 hrs post last dose; format: functional, organism-based; conditions: dose 10-20 mg/kg, time 16.0 hrs
Escherichia coli [36] = test: Antibacterial activity against ESBL Escherichia coli 5 incubated for 18 hrs by visual inspection method; format: functional
Staphylococcus aureus [37] = test: Bactericidal activity against Staphylococcus aureus at 2 times MIC measured after 6 hrs by time kill kinetic assay; format: functional, organism-based
Acinetobacter baumannii [38] = test: Antibacterial activity against multidrug resistant Acinetobacter baumannii 1 incubated for 18 hrs by visual inspection method; format: functional
Escherichia coli [39] = test: Antibacterial activity against ESBL Escherichia coli 2 incubated for 18 hrs by visual inspection method; format: functional
Staphylococcus aureus [40] = test: Bactericidal activity against Staphylococcus aureus at 4 times MIC measured after 2 hrs by time kill kinetic assay; format: functional
Cell membrane [41] = test: Induction of inner membrane permeability in Escherichia coli ML-35 measured every 5 mins for 90 mins by ONPG dye based assay; format: cell membranes
Cell membrane [42] = test: Induction of cell membrane damage in Escherichia coli assessed as change in morphology by measuring roughened membrane at 4 times MIC incubated for 5 hrs by SEM analysis; format: cell membranes
Staphylococcus aureus [43] = test: Inhibition of biofilm formation in Staphylococcus aureus at 2 times MIC incubated for 24 hrs by crystal violet staining based assay; format: functional
Staphylococcus aureus [44] = test: Inhibition of biofilm formation in Staphylococcus aureus at 16 times MIC incubated for 24 hrs by crystal violet staining based assay; format: functional
Erythrocyte [45] = test: Hemolytic activity in rat erythrocytes at 500 to 1000 ug/ml incubated for 1 hr; format: toxicity, cell-based; conditions: dose 500-1000 µg/ml
Cell membrane [46] = test: Induction of cell membrane damage in Staphylococcus aureus assessed as decrease in red/green fluorescence ratio at 2 times MIC by DiOC2(3) fluorescent probe based assay; format: cell membranes

## CC[C@H](C)[C@H](NC(=O)[C@H](Cc1ccccc1)NC(=O)[C@@H](N)Cc1c[nH]c2ccccc12)C(=O)N[C@H](C(=O)N[C@@H](Cc1c[nH]c2ccccc12)C(=O)N[C@@H](Cc1c[nH]cn1)C(=O)N[C@@H](Cc1c[nH]c2ccccc12)C(=O)N[C@@H](CCCNC(=N)N)C(=O)N[C@@H](CCCCN)C(=O)N[C@H](C(=O)N1CCC[C@H]1C(=O)N1CCC[C@H]1C(=O)N[C@@H](CCCCN)C(N)=O)[C@@H](C)CC)[C@@H](C)CC (H-WFIIWHWRKIPPK-NH2)
Staphylococcus aureus [1]
  inhibition (INH): 12.29%
Escherichia coli [2]
  Activity: 100%
Erythrocyte [3]
  HC5: 416.15 µg/mL
Staphylococcus aureus [4]
  MIC: 7.5 mg/L
Cell membrane [5]
  Activity: Tde
Cell membrane [6]
  Activity: Active
Acinetobacter baumannii [7]
  MIC: 7.5 mg/L (≈ 4.15 µM)
Escherichia coli [8]
  Activity: Active
Escherichia coli [9]
  MIC: 15 mg/L (≈ 8.3 µM)
Staphylococcus aureus [10]
  fold change (FC): 2
Acinetobacter baumannii [11]
  MIC: 7.5 mg/L (≈ 4.15 µM)
Staphylococcus aureus [12]
  MIC: 7.5 mg/L
Escherichia coli [13]
  MIC: 15 mg/L (≈ 8.3 µM)
Escherichia coli [14]
  MIC: 15 mg/L (≈ 8.3 µM)
Staphylococcus aureus [15]
  MIC: 7.5 mg/L (≈ 4.15 µM)
Cell membrane [16]
  Activity: Active
Staphylococcus aureus [17]
  MIC: 7.5 mg/L (≈ 4.15 µM)
Cell membrane [18]
  Activity: Active
Staphylococcus aureus [19]
  MIC: 7.5 mg/L
Cell membrane [20]
  Activity: Active
Staphylococcus aureus [21]
  MIC: 7.5 mg/L (≈ 4.15 µM)
[22]
  Activity: Non-Toxic
Staphylococcus aureus [23]
  MIC: 7.5 mg/L (≈ 4.15 µM)
Escherichia coli [24]
  MIC: 15 mg/L
[25]
  Activity: Toxic
Bacillus subtilis
  MIC: 3.75 mg/L (≈ 2.08 µM)
[26]
  Activity: Non-Toxic
Cell membrane [27]
  Activity: Active
[28]
  Activity: Non-Toxic
Erythrocyte [29]
  Activity: Non-Toxic
Acinetobacter baumannii [30]
  MIC: 7.5 mg/L (≈ 4.15 µM)
[31]
  hemolysis at 1 h, 1000 ug/ml: 10.8%
[32]
  MIC: 3.75 mg/L (≈ 2.08 µM)
Klebsiella pneumoniae
  MIC: 30 mg/L (≈ 16.6 µM)
Cell membrane [33]
  Activity: Active
Cell membrane [34]
  Activity: Active
Staphylococcus aureus [35]
  Activity: Active
Escherichia coli [36]
  MIC: 15 mg/L (≈ 8.3 µM)
Staphylococcus aureus [37]
  Activity: Active
Acinetobacter baumannii [38]
  MIC: 7.5 mg/L (≈ 4.15 µM)
Escherichia coli [39]
  MIC: 15 mg/L (≈ 8.3 µM)
Staphylococcus aureus [40]
  Activity: 100%
Cell membrane [41]
  Activity: Dose-Dependent Effect
Cell membrane [42]
  Activity: Active
Staphylococcus aureus [43]
  inhibition (INH): 20.76%
Staphylococcus aureus [44]
  inhibition (INH): >90%
Erythrocyte [45]
  Activity: Toxic
Cell membrane [46]
  Activity: Active
